Laboratory results as given in patent US20150376172A1, “FLUORO-[1,3]OXAZINES AS BACE1 INHIBITORS” (HOFFMANN-LA ROCHE INC., priority 2013, published 2015).

molecular target: T1, BACE1 (Homo sapiens, UniProt P56817); experiment: Cellular Aβ-lowering assay (Abeta 40 AlphaLISA); type: cell-based; settings: HEK293 APP cells; 18-20 hrs incubation; Aβ 40 in culture supernatants by AlphaLISA; read-out: BACE1 cell act. Aβ40 IC50
T1 construct: endogenous in cells; host or cells: HEK293 APP cells
T1 sequence (P56817 46-501): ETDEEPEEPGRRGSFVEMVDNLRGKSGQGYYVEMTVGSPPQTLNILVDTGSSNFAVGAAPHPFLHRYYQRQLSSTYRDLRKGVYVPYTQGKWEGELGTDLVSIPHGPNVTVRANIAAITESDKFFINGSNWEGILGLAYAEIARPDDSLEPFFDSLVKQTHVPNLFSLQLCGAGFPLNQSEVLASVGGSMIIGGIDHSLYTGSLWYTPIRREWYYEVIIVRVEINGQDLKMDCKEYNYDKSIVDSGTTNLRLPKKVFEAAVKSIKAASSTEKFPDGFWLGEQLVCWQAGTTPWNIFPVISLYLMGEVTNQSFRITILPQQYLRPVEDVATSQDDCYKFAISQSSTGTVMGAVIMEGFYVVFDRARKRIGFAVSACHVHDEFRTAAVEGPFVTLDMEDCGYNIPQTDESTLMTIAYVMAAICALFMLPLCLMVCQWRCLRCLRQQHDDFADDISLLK

Row | SMILES | IC50 [nM]
1 | Cc1cc(F)c([C@]2(C)C[C@@H](C(F)(F)F)OC(N)=N2)cc1-c1cnccc1F [Example 73, (4S,6S)-4-(2-Fluoro-5-(4-fluoropyridin-3-yl)-4-methylphenyl)-4-methyl-6-(trifluoromethyl)-5,6-dihydro-4H-1,3-oxazin-2-amine] | 1300
2 | Cc1cc(F)c([C@]2(C)C[C@@H](C(F)(F)F)OC(N)=N2)cc1-c1cccc(C#N)c1F [Example 74, 5′-((4S,6S)-2-Amino-4-methyl-6-(trifluoromethyl)-5,6-dihydro-4H-1,3-oxazin-4-yl)-2,4′-difluoro-2′-methylbiphenyl-3-carbonitrile] | 3560
3 | C[C@@]1(c2cc(C#Cc3ccc(Cl)cc3)ccc2F)C[C@@H](C(F)(F)F)OC(N)=N1 [Example 75, (4S,6S)-4-(5-((4-Chlorophenyl)ethynyl)-2-fluorophenyl)-4-methyl-6-(trifluoromethyl)-5,6-dihydro-4H-1,3-oxazin-2-amine] | 1430
4 | C[C@@]1(c2cc(C#Cc3ccc(Cl)nc3)ccc2F)C[C@@H](C(F)(F)F)OC(N)=N1 [Example 76, (4S,6S)-4-[5-[2-(6-Chloropyridin-3-yl)ethynyl]-2-fluorophenyl]-4-methyl-6-(trifluoromethyl)-5,6-dihydro-1,3-oxazin-2-amine] | 1920
5 | C[C@@]1(c2cc(-c3cn(-c4ccc(C#N)cn4)nn3)ccc2F)C[C@@H](C(F)(F)F)OC(N)=N1 [Example 77, 6-(4-(3-((4S,6S)-2-Amino-4-methyl-6-(trifluoromethyl)-5,6-dihydro-4H-1,3-oxazin-4-yl)-4-fluorophenyl)-1H-1,2,3-triazol-1-yl)nicotinonitrile] | 180
